For 26 compounds, Kd and IC50 results are on record in patent publication US20240025906A1 (NEURON23, INC., priority 2022, published 2024).

Each structure is given as a SMILES string.

One experiment addresses T1, TYK2 JH2 (Homo sapiens, UniProt P29597).
T1 construct: purchased DiscoverX (KINOMEscan KdELECT service); host or cells: E. coli BL21-derived (T7 phage display) or HEK-293
The experiment can be described thus: TYK2 JH2 binding assay (KINOMEscan KdELECT competitive binding). The settings on record: TYK2 JH2 domain, KINOMEscan KdELECT (Assay A); read-out: Biochemical TYK2_DiscoverX_JH2_BND_Kd. Summed up: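 The assay measures displacement of DNA- or phage-tagged TYK2 pseudokinase domain from an affinity resin; compound binding lowers the amount captured, read by qPCR. Incubation lasts 1 h at room temperature.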

Experiment [1] relates to JAK1/TYK2 pSTAT5 (Tyr694/699) in THP-1 cell line. The experiment can be described thus: IFNa-stimulated JAK1/TYK2 pSTAT5 (Tyr694/699) inhibition cellular assay, AlphaLISA. The note with it: Homo sapiens; THP-1 cells, IFNa-stimulated, AlphaLISA (Assay B); read-out: Cellular_THP1_IFNa-pSTATS_TYK2. The experiment is classed as cell-based. Summed up:
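The readout is AlphaLISA signal at 615 nm for phospho-STAT5 in THP-1 lysates after IFNa stimulation (added at 100 ng/mL, 30 min, 37 °C). Cells had compound for 1 h beforehand across eight 6-fold concentrations up to 10000 nM final. IC50s are 4PL fits with bottom and Hill slope constrained.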

T1 sequence (P29597 589-875 limits assumed): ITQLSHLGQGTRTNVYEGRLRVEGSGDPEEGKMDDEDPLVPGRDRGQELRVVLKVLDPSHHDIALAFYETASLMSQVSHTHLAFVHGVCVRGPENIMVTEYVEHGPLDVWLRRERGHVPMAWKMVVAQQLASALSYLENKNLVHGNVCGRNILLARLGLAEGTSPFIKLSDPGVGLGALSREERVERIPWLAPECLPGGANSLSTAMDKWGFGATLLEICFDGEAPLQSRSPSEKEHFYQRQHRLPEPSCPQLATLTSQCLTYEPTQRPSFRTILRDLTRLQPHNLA

For the compound `CNc1ncc(C#Cc2cn(C)c(C(F)(F)F)n2)c2cc(NC(=O)C3CC3)ncc12` [Example 897, N-(5-((1-methyl-2-(trifluoromethyl)-1H-imidazol-4-yl)ethynyl)-8-(methylamino)-2,7-naphthyridin-3-yl)cyclopropanecarboxamide], the Kd at TYK2 JH2 is not above 100 nM. In addition, in experiment [1], the IC50 was not above 500 nM.

Take `[2H]C([2H])([2H])n1cc(C#Cc2cnc(NC)c3cnc(NC(=O)C4CC4)cc23)nc1C` [Example 898, N-(5-((2-methyl-1-(methyl-d3)-1H-imidazol-4-yl)ethynyl)-8-(methylamino)-2,7-naphthyridin-3-yl)cyclopropanecarboxamide]: on TYK2 JH2, the Kd is not above 100 nM. For the same compound, the IC50 in experiment [1] was not above 500 nM.

Take `CNc1ncc(C#Cc2cn3c(n2)CCCC3)c2cc(NC(=O)C3CC3)ncc12` [Example 899, N-(8-(methylamino)-5-((5,6,7,8-tetrahydroimidazo[1,2-a]pyridin-2-yl)ethynyl)-2,7-naphthyridin-3-yl)cyclopropanecarboxamide]: on TYK2 JH2, the Kd was not above 100 nM. For the same compound, in experiment [1], the IC50 is not above 500 nM.

With `[2H]C([2H])([2H])n1ccc(C#Cc2cnc(NC)c3cnc(NC(=O)C4CC4)cc23)n1` [Example 900, N-(5-((1-(methyl-d3)-1H-pyrazol-3-yl)ethynyl)-8-(methylamino)-2,7-naphthyridin-3-yl)cyclopropanecarboxamide], the Kd on TYK2 JH2 is not above 100 nM. In addition, the IC50 in experiment [1] is not above 500 nM.

On to `[2H]C([2H])([2H])n1nccc1C#Cc1cnc(NC)c2cnc(NC(=O)C3CC3)cc12` [Example 901, N-(5-((1-(methyl-d3)-1H-pyrazol-5-yl)ethynyl)-8-(methylamino)-2,7-naphthyridin-3-yl)cyclopropanecarboxamide], for which the Kd on TYK2 JH2 is not above 100 nM. Besides, the IC50 in experiment [1] is not above 500 nM.

Turning to `[2H]C([2H])([2H])n1c(C#Cc2cnc(NC)c3cnc(NC(=O)C4CC4)cc23)cnc1C` [Example 902, N-(5-((2-methyl-1-(methyl-d3)-1H-imidazol-5-yl)ethynyl)-8-(methylamino)-2,7-naphthyridin-3-yl)cyclopropanecarboxamide], on TYK2 JH2, the Kd was not above 100 nM. Moreover, the IC50 in experiment [1] is not above 500 nM.

Regarding `[2H]C([2H])([2H])Nc1ncc(C#Cc2cn(C)c(C)n2)c2cc(NC(=O)[C@H]3C[C@H]3C)ncc12` [Example 903, (1S,2R)-N-(5-((1,2-dimethyl-1H-imidazol-4-yl)ethynyl)-8-((methyl-d3)amino)-2,7-naphthyridin-3-yl)-2-methylcyclopropane-1-carboxamide], the Kd on TYK2 JH2 is not above 100 nM. The IC50 in experiment [1] is not above 500 nM.

On to `CNc1ncc(C#Cc2ccc(OC)c(C)n2)c2cc(NC(=O)C3CC3)ncc12` [Example 904, N-(5-((5-methoxy-6-methylpyridin-2-yl)ethynyl)-8-(methylamino)-2,7-naphthyridin-3-yl)cyclopropanecarboxamide], for which, at TYK2 JH2, the Kd was not above 100 nM. Also, in experiment [1], the IC50 was not above 500 nM.

For `CNc1ncc(-c2nc3ccc(N4CCOCC4)cc3o2)c2cc(NC(=O)C3CC3)nnc12` [Example 913, N-(8-(methylamino)-5-(6-morpholinobenzo[d]oxazol-2-yl)pyrido[3,4-c]pyridazin-3-yl)cyclopropanecarboxamide], the Kd at TYK2 JH2 is not above 100 nM. The IC50 in experiment [1] is not above 500 nM.

In the case of `CNc1ncc(-c2nc3cc(N4CCOCC4)ccc3o2)c2cc(NC(=O)C3CC3)nnc12` [Example 914, N-(8-(methylamino)-5-(5-morpholinobenzo[d]oxazol-2-yl)pyrido[3,4-c]pyridazin-3-yl)cyclopropancarboxamide], the Kd on TYK2 JH2 is not above 100 nM. In experiment [1], the IC50 is not above 500 nM.

With `CNc1ncc(C#Cc2ccc(OC3CN(C(C)=O)C3)cc2)c2cc(NC(=O)C3(F)CC3)nnc12` [Example 915, N-(5-((4-((1-acetylazetidin-3-yl)oxy)phenyl)ethynyl)-8-(methylamino)pyrido[3,4-c]pyridazin-3-yl)-1-fluorocyclopropane-1-carboxamide], the Kd on TYK2 JH2 is not above 100 nM. Further, in experiment [1], the IC50 is more than 500 nM.

`CNc1ncc(-c2nc3cc(N4CCC(F)CC4)ccc3o2)c2cc(NC(=O)C3CC3)ncc12` [Example 916, N-[5-[5-(4-fluoro-1-piperidyl)-1,3-benzoxazol-2-yl]-8-(methylamino)-2,7-naphthyridin-3-yl]cyclopropanecarboxamide]: on TYK2 JH2, the Kd is not above 100 nM. In addition, in experiment [1], the IC50 is not above 500 nM.

As for `CNc1ncc(-c2nc3cc(N4CCCC4)ccc3o2)c2cc(NC(=O)C3CC3)ncc12` [Example 917, N-[8-(methylamino)-5-(5-pyrrolidin-1-yl-1,3-benzoxazol-2-yl)-2,7-naphthyridin-3-yl]cyclopropanecarboxamide], on TYK2 JH2, the Kd was not above 100 nM. Besides, in experiment [1], the IC50 was not above 500 nM.

For `CNc1ncc(-c2nc3cc(N4CCOC(COC)C4)ccc3o2)c2cc(NC(=O)C3CC3)ncc12` (stereo not shown) [Example 918, N-(5-(5-(2-(methoxymethyl)morpholino)benzo[d]oxazol-2-yl)-8-(methylamino)-2,7-naphthyridin-3-yl)cyclopropanecarboxamide], the Kd on TYK2 JH2 was not above 100 nM. Moreover, in experiment [1], the IC50 was not above 500 nM.

As for `CNc1ncc(-c2nc3cc(N4CCOC(C(F)(F)F)C4)ccc3o2)c2cc(NC(=O)C3CC3)ncc12` (stereo not shown) [Example 921, N-(8-(methylamino)-5-(5-(2-(trifluoromethyl)morpholino)benzo[d]oxazol-2-yl)-2,7-naphthyridin-3-yl)cyclopropanecarboxamide], the Kd at TYK2 JH2 is not above 100 nM. Moreover, in experiment [1], the IC50 was not above 500 nM.

Turning to `CNc1ncc(-c2nc3cc(N4CCOC(C(C)(C)O)C4)ccc3o2)c2cc(NC(=O)C3CC3)ncc12` (stereo not shown) [Example 924, N-(5-(5-(2-(2-hydroxypropan-2-yl)morpholino)benzo[d]oxazol-2-yl)-8-(methylamino)-2,7-naphthyridin-3-yl)cyclopropanecarboxamide], the Kd at TYK2 JH2 was not above 100 nM. In addition, in experiment [1], the IC50 is not above 500 nM.

As to `CNc1ncc(-c2nc3cc(N4CC(C)(O)C4)ccc3o2)c2cc(NC(=O)C3CC3)ncc12` [Example 927, N-(5-(5-(3-hydroxy-3-methylazetidin-1-yl)benzo[d]oxazol-2-yl)-8-(methylamino)-2,7-naphthyridin-3-yl)cyclopropanecarboxamide], at TYK2 JH2, the Kd was not above 100 nM. Also, in experiment [1], the IC50 is not above 500 nM.

Take `CNc1ncc(-c2nc3cnc(C)cc3o2)c2cc(NC(=O)C3CC3)ncc12` [Example 928, N-(8-(methylamino)-5-(6-methyloxazolo[4,5-c]pyridin-2-yl)-2,7-naphthyridin-3-yl)cyclopropanecarboxamide]: the Kd on TYK2 JH2 is not above 100 nM. For the same compound, the IC50 in experiment [1] is not above 500 nM.

For `CNc1ncc(-c2nc3cc(N4CCOCC4=O)ccc3o2)c2cc(NC(=O)C3CC3)ncc12` [Example 929, N-(8-(methylamino)-5-(5-(3-oxomorpholino)benzo[d]oxazol-2-yl)-2,7-naphthyridin-3-yl)cyclopropanecarboxamide], the Kd at TYK2 JH2 was not above 100 nM. Moreover, the IC50 in experiment [1] was not above 500 nM.

With `CNc1ncc(-c2nc3cc(OC)ccc3s2)c2cc(NC(=O)C3CC3)ncc12` [Example 930, N-(5-(5-methoxybenzo[d]thiazol-2-yl)-8-(methylamino)-2,7-naphthyridin-3-yl)cyclopropanecarboxamide], the Kd on TYK2 JH2 was not above 100 nM. Besides, the IC50 in experiment [1] was not above 500 nM.

On to `C=C(C)c1ccc2oc(-c3cnc(NC)c4cnc(NC(=O)C5CC5)cc34)nc2c1` [Example 931, N-(8-(methylamino)-5-(5-(prop-1-en-2-yl)benzo[d]oxazol-2-yl)-2,7-naphthyridin-3-yl)cyclopropanecarboxamide], for which, at TYK2 JH2, the Kd is not above 100 nM. Moreover, in experiment [1], the IC50 is not above 500 nM.

With `CNc1ncc(-c2nc3cc(N4CC(C)(F)C4)ccc3o2)c2cc(NC(=O)C3CC3)ncc12` [Example 932, N-(5-(5-(3-fluoro-3-methylazetidin-1-yl)benzo[d]oxazol-2-yl)-8-(methylamino)-2,7-naphthyridin-3-yl)cyclopropanecarboxamide], on TYK2 JH2, the Kd is not above 100 nM. For the same compound, the IC50 in experiment [1] is not above 500 nM.

As for `CNc1ncc(-c2nc3ccc(OC)cc3s2)c2cc(NC(=O)C3CC3)ncc12` [Example 933, N-(5-(6-methoxybenzo[d]thiazol-2-yl)-8-(methylamino)-2,7-naphthyridin-3-yl)cyclopropanecarboxamide], the Kd at TYK2 JH2 is not above 100 nM. Moreover, the IC50 in experiment [1] was not above 500 nM.

On to `CNc1ncc(-c2nc3cc(N4CC5(CCOCC5)C4)ccc3o2)c2cc(NC(=O)C3CC3)ncc12` [Example 934, N-(5-(5-(7-oxa-2-azaspiro[3.5]nonan-2-yl)benzo[d]oxazol-2-yl)-8-(methylamino)-2,7-napththyridin-3-yl)cyclopropanecarboxamide], for which, at TYK2 JH2, the Kd is not above 100 nM. The IC50 in experiment [1] is not above 500 nM.

On to `CNc1ncc(-c2nc3cc(OC)cc(F)c3o2)c2cc(NC(=O)C3CC3)ncc12` [Example 937, N-(5-(7-fluoro-5-methoxybenzo[d]oxazol-2-yl)-8-(methylamino)-2,7-naphthyridin-3-yl)cyclopropanecarboxamide], for which the Kd at TYK2 JH2 is not above 100 nM. Further, the IC50 in experiment [1] was not above 500 nM.

Take `CNc1ncc(-c2nc3cc(N4CCCC(F)(F)C4)ccc3o2)c2cc(NC(=O)C3CC3)ncc12` [Example 938, N-[5-[5-(3,3-difluoro-1-piperidyl)-1,3-benzoxazol-2-yl]-8-(methylamino)-2,7-naphthyridin-3-yl]cyclopropanecarboxamide]: the Kd on TYK2 JH2 was not above 100 nM. Moreover, the IC50 in experiment [1] is not above 500 nM.
